Where “and” joins values, the source holds several entries; their conditions need not be identical. Identical values can stand only once.
target: human mGluR5A (Homo sapiens, UniProt P41594); assay: mGluR5 FLIPR Assay; type: cell-based; conditions: positive modulator activity; HEK293 (ZF) cells with human mGluR5A and rat GLAST; Ca++ response to ~EC10 glutamate
Sequence (P41594 21-1180 isoform P41594-2): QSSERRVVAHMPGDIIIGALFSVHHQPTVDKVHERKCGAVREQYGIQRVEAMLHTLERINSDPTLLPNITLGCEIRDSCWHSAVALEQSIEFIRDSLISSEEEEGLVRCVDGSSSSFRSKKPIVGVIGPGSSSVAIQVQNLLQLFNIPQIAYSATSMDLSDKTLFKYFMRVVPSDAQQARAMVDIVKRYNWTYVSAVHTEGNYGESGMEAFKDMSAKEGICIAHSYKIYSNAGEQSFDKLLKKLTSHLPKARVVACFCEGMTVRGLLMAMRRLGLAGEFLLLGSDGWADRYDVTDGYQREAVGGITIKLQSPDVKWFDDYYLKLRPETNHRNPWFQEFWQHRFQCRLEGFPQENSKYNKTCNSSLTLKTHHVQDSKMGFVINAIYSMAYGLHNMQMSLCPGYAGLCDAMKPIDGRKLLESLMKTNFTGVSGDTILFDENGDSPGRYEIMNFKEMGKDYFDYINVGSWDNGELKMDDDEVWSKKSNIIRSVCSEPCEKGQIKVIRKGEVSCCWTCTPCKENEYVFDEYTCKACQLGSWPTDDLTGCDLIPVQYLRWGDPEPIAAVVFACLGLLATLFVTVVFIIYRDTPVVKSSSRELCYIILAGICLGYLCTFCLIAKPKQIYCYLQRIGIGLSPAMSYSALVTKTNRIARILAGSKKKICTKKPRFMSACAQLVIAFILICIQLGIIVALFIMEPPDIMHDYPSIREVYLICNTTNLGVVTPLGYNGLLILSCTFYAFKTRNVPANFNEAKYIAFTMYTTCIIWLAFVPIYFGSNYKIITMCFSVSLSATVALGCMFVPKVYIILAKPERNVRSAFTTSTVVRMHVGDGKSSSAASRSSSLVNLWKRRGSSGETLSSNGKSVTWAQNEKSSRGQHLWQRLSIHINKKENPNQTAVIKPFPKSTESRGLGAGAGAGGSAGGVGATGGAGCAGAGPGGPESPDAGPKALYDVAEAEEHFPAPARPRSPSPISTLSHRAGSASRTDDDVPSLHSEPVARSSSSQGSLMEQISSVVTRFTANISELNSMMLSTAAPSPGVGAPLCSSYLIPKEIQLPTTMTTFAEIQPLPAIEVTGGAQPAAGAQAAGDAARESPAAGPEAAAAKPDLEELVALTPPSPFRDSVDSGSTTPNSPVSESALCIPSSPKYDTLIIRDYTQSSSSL

Going from `O=C1N[C@H](c2cc(C#Cc3cccc(F)c3)ccn2)[C@@H](c2ccc(F)cc2)O1` (single isomer, unassigned) [Example 355] to `O=C1N[C@@H](c2cccc(C#Cc3ccnc(F)c3)n2)[C@H](c2ccc(F)cc2)O1` (single isomer, unassigned) [Example 373], the EC50 rises from less than 100 nM to greater than 1000 nM.

`O=C1N[C@H](c2cccc(C#Cc3cccnc3)c2)[C@@H](c2cnccn2)O1` [Example 249] and `O=C1N[C@@H](c2cccc(C#Cc3cccnc3)c2)[C@@H](c2cnccn2)O1` [Example 250] cannot be ordered by EC50: greater than 1000 nM for the first, greater than 1000 nM for the second.

`COc1ccccc1[C@@H]1OC(=O)N[C@@H]1c1cncc(C#Cc2ccccc2)c1` (single isomer, unassigned) [Example 335] and `COc1ccccc1[C@@H]1OC(=O)N[C@H]1c1cncc(C#Cc2ccccc2)c1` (single isomer, unassigned) [Example 333] cannot be ordered by EC50: greater than 1000 nM for the first, greater than 1000 nM for the second.

Going from `O=C1N[C@@H](c2cccc(C#Cc3ccccc3)n2)[C@H](c2cccnc2)O1` (single isomer, unassigned) [Example 366] to `O=C1N[C@@H](c2cccc(C#Cc3ccccc3)c2)[C@H](c2cccnc2)O1` (relative stereo) [Example 116, Trans-4-(3-(phenylethynyl)phenyl)-5-(pyridin-3-yl)oxazolidin-2-one], the EC50 falls from greater than 1000 nM to less than 100 nM.

`O=C1N[C@@H](c2cccc(C#Cc3ccccc3)c2)[C@H](c2nc(-c3cccnc3)no2)O1` [Example 165] and `COc1cccc([C@H]2OC(=O)N[C@H]2c2cccc(C#Cc3ccccc3)c2)c1` (single isomer, unassigned) [Example 4] cannot be ordered by EC50: greater than 1000 nM for the first, greater than 30000 nM for the second.

First: O=C1N[C@H](c2cncc(C#Cc3ccccc3)c2)[C@H](c2cc(Cl)ccc2Cl)O1 (single isomer, unassigned) [Example 327]
Second: O=C1N[C@@H](c2cncc(C#Cc3ccccc3)c2)[C@H](c2ccccc2Cl)O1 (single isomer, unassigned) [Example 363]
The EC50 of the first is higher: greater than 1000 nM for the first, less than 100 nM for the second.

`COc1cccc([C@H]2OC(=O)N[C@@H]2c2cccc(C#Cc3cscn3)c2)c1` [Example 68] and `COc1cccc([C@H]2OC(=O)N[C@@H]2c2cccc(C#Cc3cccc(F)n3)c2)c1` [Example 72, (4R,5R)-4-(3-((6-Fluoropyridin-2-yl)ethnyl)phenyl)-5-(3-methoxyphenyl)oxazolidin-2-one] cannot be ordered by EC50: less than 100 nM for the first, less than 100 nM for the second.

Going from `O=C1N[C@H](c2cc(C#Cc3cncc(C4CC4)c3)cnc2F)[C@@H](c2ccc(F)cc2)O1` [Example 155, (4R,5R)-4-(5-((5-Cyclopropylpyridin-3-yl)ethynyl)-2-fluoropyridin-3-yl)-5-(4-fluorophenyl)oxazolidin-2-one] to `O=C1N[C@H](c2cc(C#Cc3cccc(F)n3)cnc2F)[C@@H](c2ccc(F)cc2)O1` [Example 157, (4R,5R)-4-(2-Fluoro-5-((6-fluoropyridin-2-yl)ethynyl)pyridin-3-yl)-5-(4-fluorophenyl)oxazolidin-2-one], the EC50 falls from greater than 1000 nM to less than 100 nM.

`O=C1N[C@H](c2cncc(C#Cc3cccc(Cl)c3)c2)[C@@H](c2cccc(F)c2)O1` [Example 403, (4R,5R)-4-(5-((3-chlorophenyl)ethynyl)pyridin-3-y1)-5-(3-fluorophenyl)oxazolidin-2-one] and `O=C1N[C@H](c2cncc(C#Cc3ccccc3Cl)c2)[C@@H](c2cccc(F)c2)O1` [Example 399, (4R,5R)-4-(5-((2-chlorophenyl)ethynyl)pyridin-3-yl)-5-(3-fluorophenyl)oxazolidin-2-one] cannot be ordered by EC50: less than 100 nM for the first, less than 100 nM for the second.

Compared with `C[C@]1(c2cccc(C#Cc3ccccc3)n2)NC(=O)O[C@H]1c1ccccc1F` (single isomer, unassigned) [Example 377], `C[C@]1(c2cncc(C#Cc3ccccc3)c2)NC(=O)O[C@H]1c1cc(F)ccc1F` (racemic) [Example 405, (+/−)-5-(2,5-Difluorophenyl)-4-methyl-4-(5-(phenylethynyl)pyridin-3-yl)oxazolidin-2-one] is lower in EC50: greater than 1000 nM for the first, less than 100 nM for the second. The second is the more potent here.

`Cn1nccc1[C@@H]1OC(=O)N[C@H]1c1cncc(C#Cc2ccccc2)c1` [Example 341, (4S,5R)-5-(1-methyl-1H-pyrazol-5-yl)-4-(5-(phenylethynyl)pyridin-3-yl)oxazolidin-2-one] and `O=C1N[C@@H](c2cncc(C#Cc3ccccc3)c2)[C@H](c2ncco2)O1` [Example 338, (4S,5R)-5-(oxazol-2-yl)-4-(5-(phenylethynyl)pyridin-3-yl)oxazolidin-2-one] cannot be ordered by EC50: greater than 1000 nM for the first, greater than 1000 nM for the second.

`O=C1N[C@@H](c2nccc(C#Cc3ccccc3)n2)[C@H](c2cccc(F)c2)O1` [Example 274] and `COc1cccc([C@H]2OC(=O)N[C@@H]2c2ccnc(C#Cc3ccccc3)c2)c1` (single isomer, unassigned) [Example 36] cannot be ordered by EC50: greater than 1000 nM for the first, greater than 1000 nM for the second.

Going from `O=C1N[C@H](c2cccc(C#Cc3ccccc3)c2)[C@@H](c2nnn[nH]2)O1` [Example 168, (4R,5S)-4-(3-(Phenylethynyl)phenyl)-5-(1H-tetrazol-5-yl)oxazolidin-2-one] to `COc1cccc([C@H]2OC(=O)N[C@@H]2c2cccc(C#Cc3ccncc3)c2)c1` [Example 51], the EC50 falls from greater than 1000 nM to less than 100 nM. The second is the more potent here.

`O=C1N[C@@H](c2cccc(C#Cc3cnccn3)n2)[C@H](c2ccc(F)cc2)O1` (single isomer, unassigned) [Example 369] and `O=C1N[C@@H](c2cccc(C#Cc3ccccc3)n2)[C@H](c2c(F)cc(F)cc2F)O1` (single isomer, unassigned) [Example 314] cannot be ordered by EC50: greater than 1000 nM for the first, greater than 1000 nM for the second.

`O=C1N[C@@H](c2cncc(C#Cc3cncc(F)c3)c2)[C@H](c2cccnc2)O1` [Example 202] and `O=C1N[C@H](c2cncc(C#Cc3ccnnc3)c2)[C@@H](c2cc(F)ccc2F)O1` [Example 393, (4R,5R)-5-(2,5-difluorophenyl)-4-(5-(pyridazin-4-ylethynyl)pyridin-3-yl)oxazolidin-2-one] cannot be ordered by EC50: greater than 1000 nM for the first, greater than 1000 nM for the second.

First: O=C1N[C@H](c2cncc(C#Cc3cccc(F)c3)c2)[C@@H](c2cc(F)ccc2F)O1 [Example 283]
Second: O=C1N[C@H](c2cncc(C#Cc3ccc(Cl)c(Cl)c3)c2)[C@@H](c2cc(F)ccc2F)O1 [Example 383, (4R,5R)-4-(5-((3,4-dichlorophenyl)ethynyl)pyridin-3-y1)-5-(2,5-difluorophenyl)oxazolidin-2-one]
The EC50 of the first is lower: less than 100 nM for the first, greater than 1000 nM for the second. The first is the more potent here.

`COc1cccc([C@@H]2OC(=O)N[C@H]2c2cccc(C#Cc3ccccc3C(F)(F)F)c2)c1` [Example 126, (4S,5S)-5-(3-methoxyphenyl)-4-(3-((2-(trifluoromethyl)phenyl)ethynyl)phenyl)oxazolidin-2-one] and `COc1cccc([C@@H]2OC(=O)N[C@H]2c2cccc(C#Cc3ccc(C(F)(F)F)cc3)c2)c1` (stereo in doubt) [Example 120, (4S,5S)-5-(3-methoxyphenyl)-4-(3-((4-(trifluoromethyl)phenyl)ethynyl)phenyl)oxazolidin-2-one] cannot be ordered by EC50: greater than 30000 nM for the first, greater than 1000 nM for the second.

First: C[C@]1(c2cc(F)ccc2F)OC(=O)N[C@H]1c1cncc(C#Cc2ccccc2)c1 [Example 291]
Second: C[C@@]1(c2cccc(F)c2)OC(=O)N[C@H]1c1cncc(C#Cc2ccccc2)c1 [Example 221]
The EC50 of the first is lower: 100 to 1000 nM for the first, greater than 1000 nM for the second. The first is the more potent here.

First: COc1cccc([C@H]2OC(=O)N[C@@H]2c2cccc(C#Cc3ccc(F)cc3F)c2)c1 [Example 127, (4R,5R)-4-(3-((2,4-difluorophenyl)ethynyl)phenyl)-5-(3-methoxyphenyl)oxazolidin-2-one]
Second: COc1cccc([C@H]2OC(=O)N[C@@H]2c2cccc(C#Cc3ccc(Cl)cc3)c2)c1 [Example 263]
The EC50 of the first is lower: 100 to 1000 nM for the first, greater than 1000 nM for the second.

`N#Cc1cccc(C#Cc2cncc([C@@H]3NC(=O)O[C@H]3c3cc(F)cc(F)c3)c2)c1` [Example 190] and `COc1cccc([C@H]2OC(=O)N[C@@H]2c2cccc(C#Cc3ccc(C#N)nc3)c2)c1` [Example 70, 5-((3-((4R,5R)-5-(3-Methoxyphenyl)-2-oxazolidin-4-yl)phenyl)ethynyl)picolinonitrile] cannot be ordered by EC50: greater than 1000 nM for the first, greater than 1000 nM for the second.

First: O=C1N[C@H](c2cc(C#Cc3ccccc3)cnc2F)[C@@H](c2ccccc2F)O1 (single isomer, unassigned) [Example 375]
Second: COc1cccc([C@H]2OC(=O)N[C@@H]2c2cccc(C#Cc3ccc(Cl)nc3)c2)c1 [Example 82, (4R,5R)-4-(3-((6-Chloropyridin-3-yl)ethynyl)phenyl)-5-(3-methoxyphenyl)oxazolidin-2-one]
The EC50 of the first is lower: less than 100 nM for the first, 100 to 1000 nM for the second. The first is the more potent here.

Work on `O=C1N[C@H](c2cncc(C#Cc3cnccn3)c2)[C@@H](c2ccc(F)c(F)c2F)O1` [Example 296] yielded an EC50 of less than 100 nM.

In the case of `N#Cc1cccc(C#Cc2cncc([C@H]3NC(=O)O[C@@H]3c3ccc(F)cc3F)c2)c1` [Example 180], the EC50 is reported as 100 to 1000 nM and 259 nM.
`O=C1N[C@H](c2cncc(C#Cc3cncnc3)c2)[C@@H](c2cccc(F)c2)O1` [Example 398, (4R,5R)-5-(3-fluorophenyl)-4-(5-(pyrimidin-5-ylethynyl)pyridin-3-yl)oxazolidin-2-one] was tested, and the EC50 was 100 to 1000 nM and 141 nM.
With `COc1cccc([C@H]2OC(=O)N[C@@H]2c2cccc(C#Cc3ccccc3)c2)c1` [Example 1, (+)-(4R,5R)-5-(3-Methoxyphenyl)-4-(3-(phenylethynyl)phenyl)oxazolidin-2-one] the EC50 was < 100 nM and 39 nM.
For `O=C1N[C@H](c2cc(C#Cc3ccccc3)ccn2)[C@@H](c2ccc(F)cc2)O1` (single isomer, unassigned) [Example 297], the EC50 was < 100 nM and 4.7 nM.
In the case of `O=C1N[C@H](c2cccc(C#Cc3ccccc3)c2)[C@@H](c2ccncc2)O1` [Example 234], the EC50 is reported as < 100 nM and 2.7 nM.
For `N#Cc1cncc(C#Cc2cncc([C@H]3NC(=O)O[C@@H]3c3cccc(F)c3)c2)c1` [Example 257], the EC50 was 100 to 1000 nM and 164 nM.
For `O=C1N[C@H](c2cncc(C#Cc3ccccc3)c2)[C@@H](c2cccc(F)c2F)O1` [Example 277], the EC50 was < 100 nM and 21.5 nM.
For `COc1cccc([C@H]2OC(=O)N[C@@H]2c2cccc(C#Cc3ccccn3)c2)c1` [Example 47, (4R,5R)-5-(3-Methoxyphenyl)-4-(3-(pyridin-2-ylethynyl)phenyl)oxazolidin-2-one], the EC50 was < 100 nM and 7.4 nM.
In the case of `O=C1N[C@H](c2cncc(C#Cc3ccccc3)c2)[C@H](c2ncco2)O1` (racemic) [Example 337, (±)-(4R,5R)-5-(Oxazol-2-yl)-4-(5-(phenylethynyl)pyridin-3-yl)oxazolidin-2-one], the EC50 is reported as 100 to 1000 nM and 688 nM.

Source: patent USRE49735E1 (BRISTOL-MYERS SQUIBB COMPANY, priority 2010, dated 2023)
